Assay [1] has as its system mouse leukemia cell line (32Dp210). Nature of the assay: PD-L1 mRNA expression by real-time PCR in 32Dp210 cells (Experimental Example 4). The assay is classed as cell-based. The settings on record: inhibitor 50 μM with rPAI-1 40 nM or 100 nM, overnight, listed as PAI-1 inhibitor. As for the experimental part:
The culture supernatant of the cells overexpressing PAI-1 (32D PAI-1 OE) prepared in Experimental Example 1 (PAI-1 OE sup) was added to a mouse leukemia cell line (32Dp210). In addition, those obtained by adding the PAI-1 inhibitor to a concentration of 50 μM, together with rPAI-1 (40 nM or 100 nM), were also prepared. Then, culturing was performed on a 96-well plate at 37° C., 5% CO2, overnight. The cells were collected, RNA was extracted using ISOGEN2 (Nippon Gene Co., Ltd.), and 100 ng of RNA was subjected to a reverse transcription reaction using a PrimeScript RT-PCR kit (Takara Bio Inc.) to obtain cDNA. The PD-L1 gene expression level was monitored by real-time PCR using TaqMan Fast Advanced Master Mix (Thermo Fisher Scientific). PD-L1 (Mm00452054_m1, Thermo Fisher Scientific) was used as the primer. To standardize the RNA amount, the expression level of 18S rRNA (Hs99999901_s1, Thermo Fisher Scientific) was also measured simultaneously. The PD-L1 gene expression level was determined using a comparative Ct method, which was shown in the graph as a ratio relative to the control group.
Background: In qPCR the cycle at which signal appears reflects the starting amount.

Assay [2] has the same test system. As to the kind of experiment: PD-L1 expression in leukemic cells of mice transplanted with 32Dp210 (Experimental Example 5). The assay is classed as in vivo, mice (C3H/HEJ). Conditions: peripheral blood, 10 mg/kg orally once daily, 7 days, vs vehicle, listed as PAI-1 inhibitor. How it is done:
Specifically, 5×10^5 cells of a mouse leukemia cell line (32Dp210) were transplanted into mice (C3H/HEJ), and engraftment was confirmed one week later. Subsequently, the PAI-1 inhibitor was orally administered once daily at 10 mg/kg for a total of 7 days. On the next day of the final administration, the peripheral blood or the spleen was collected from the mice. The spleen was mechanically dispersed by grinding through nylon mesh. The peripheral blood and spleen cells were independently hemolyzed with an ammonium chloride solution and then stained with an anti-PD-L1 antibody (clone name: 10F.G92) labeled with Allophycocyanin (APC) to determine the PD-L1 expression level in the leukemic cells with a flow cytometer. As a comparative control experiment, instead of the PAI-1 inhibitor, only physiological saline (vehicle) was administered to the mice transplanted with the mouse leukemia cell line, and the PD-L1 expression level in the leukemic cells was determined with a flow cytometer in the same manner as described above.

The test system of assay [3] is M2 macrophages (CD11b+CD206+). As to the kind of experiment: PD-L1 expression in M2 macrophages from cultured mouse spleen cells (Experimental Example 6). The assay is classed as cell-based. The settings on record: inhibitor 50 μM with rPAI-1 100 nM, 4 days; listed as PAI-1 inhibitor. As for the experimental part: Specifically, 5×10^6 mouse spleen cells were cultured on a 24-well plate at 37° C., 5% CO2, overnight. After floating cells were removed, rPAI-1 (100 nM) was added, and culturing was performed at 37° C., 5% CO2, for 4 days. After culture, adherent cells were collected by trypsin treatment and stained with an anti-CD11b antibody and an anti-CD206 antibody, in addition to an anti-PD-L1 antibody. Then, gating was performed on CD11b and CD206 double-positive (CD11b^+CD206^+) M2 macrophages, and the PD-L1 expression level thereof was determined with a flow cytometer. As a comparative control experiment, the PD-L1 expression level in untreated mouse spleen cells (control) was determined in the same manner. Further, the PAI-1 inhibitor (50 μM) was added to the same mouse spleen cells, together with rPAI-1 (100 nM), followed by culture under the same conditions as described above. Then, adherent cells were collected and the PD-L1 expression level was determined with a flow cytometer in the same manner.

For assay [4], the system named is mouse leukemia cell line (32Dp210). Nature of the assay: Size of subcutaneous 32Dp210 tumor mass in mice (Experimental Example 10). It is filed as in vivo, mice (C3H/HEJ). Conditions: 32Dp210 subcutaneous, 10 mg/kg orally once daily, 7 days, n=2, listed as PAI-1 inhibitor. As for the experimental part:
Specifically, 5×10^5 cells of a mouse leukemia cell line (32Dp210) were transplanted subcutaneously in mice (C3H/HEJ), and one week later, engraftment of more than 5 mm of a tumor mass in the major axis was confirmed. Subsequently, the PAI-1 inhibitor was orally administered once daily at 10 mg/kg for a total of 7 days. On the next day of the final administration, the size of the tumor mass ([…]) was measured. As a comparative control experiment, the size of the tumor mass was measured in the same manner in terms of a mouse group to which only physiological saline (vehicle) was orally administered instead of the PAI-1 inhibitor.

Assay [5] deals with regulatory T cells (Treg). Nature of the assay: Regulatory T cells in MC38 tumor mass by flow cytometry (Experimental Example 14). It is filed as in vivo, mice (C57BL6). The settings on record: oral administration for one week, vs vehicle. How it is done:
1) The untreated group and 3) the single-administration group of PAI-1 inhibitor (cancer-bearing mice) of Experimental Example 11, after tumor engraftment, were orally administered with physiological saline (vehicle) or the PAI-1 inhibitor for one week. Thereafter, the tumors were collected, the cells were stained with an anti-CD45 antibody, an anti-CD4 antibody, an anti-CD25 antibody, and an anti-foxp3 antibody, and the percentage of regulatory T cells (Treg) in the tumor mass was analyzed with a flow cytometer.

Assay [6] deals with CD8+ T cells. Nature of the assay: Cytotoxic T cells in MC38 tumor mass by flow cytometry (Experimental Example 16). It is filed as in vivo, mice (C57BL6). Conditions: oral administration for one week, vs vehicle. From the text: 1) The untreated group and 3) the single-administration group of PAI-1 inhibitor (cancer-bearing mice) of Experimental Example 11, after tumor engraftment, were orally administered with physiological saline (vehicle) or the PAI-1 inhibitor for one week. Thereafter, the tumor was collected, the T cells were stained with an anti-CD45 antibody, an anti-CD3 antibody, an anti-CD4 antibody, an anti-CD8 antibody, and an anti-perforin antibody, and the percentage of cytotoxic T cells in the tumor mass was determined with a flow cytometer.
A general note: In flow cytometry, cells or beads pass a laser one at a time.

Assay [7] concerns the target human PAI-1 (Homo sapiens, UniProt P05121). As to the kind of experiment: PAI-1 inhibitory activity, t-PA with Spectrozyme t-PA chromogenic substrate (Reference Experimental Example 2). Set-up: purchased Molecular Innovations, Inc. (USA). The settings on record: system without compound after 120 minutes = 100%. It is filed as biochemical. How it is done: Subsequently, human-derived tissue plasminogen activator (t-PA) (manufactured by American Diagnostica, Inc. (USA); the same applies hereinafter) adjusted to 0.05 pmol/μL was added thereto, and the mixture was further incubated at 37° C. for 60 minutes. Then, 0.25 mM of Spectrozyme t-PA synthetic substrate (manufactured by American Diagnostica, Inc. (USA); the same applies hereinafter), which is a chromogenic substrate, was added. […]
Free p-nitroaniline removed from the chromogenic substrate (Spectrozyme t-PA) by t-PA action was measured using a spectrophotometer at an absorbance of 405 nm at 20-minute intervals, for 120 minutes.

Entries after “also recorded” stand apart in the source; their conditions may differ.

human PAI-1, sequence (P05121 24-402): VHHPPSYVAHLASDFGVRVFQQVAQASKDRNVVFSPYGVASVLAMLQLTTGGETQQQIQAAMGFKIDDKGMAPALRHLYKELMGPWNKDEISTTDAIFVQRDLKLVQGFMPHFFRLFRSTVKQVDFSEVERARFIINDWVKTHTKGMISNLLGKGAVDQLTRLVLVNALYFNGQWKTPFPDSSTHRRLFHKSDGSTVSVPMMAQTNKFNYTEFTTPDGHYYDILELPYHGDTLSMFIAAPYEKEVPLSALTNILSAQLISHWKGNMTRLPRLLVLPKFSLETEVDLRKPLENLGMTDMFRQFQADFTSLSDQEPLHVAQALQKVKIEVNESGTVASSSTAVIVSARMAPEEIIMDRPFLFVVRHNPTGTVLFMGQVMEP

`O=C(Nc1ccc(Cl)cc1C(=O)[O-])c1cccc(-c2cccc3cccnc23)c1.[Na+]` [Example 68, 5-chloro-2-(((3-(quinolin-8-yl)phenyl)carbonyl)amino)sodium benzoate]: the “increase in PD-L1 mRNA expression by rPAI-1” value in assay [1] is “inhibited the induction of the expression; also recorded: suppressed”. Further, in assay [2], the “PD-L1 expression level in leukemia cells” value was “reduced PD-L1 expression level; also recorded: lower PD-L1 expression level”. The “enhancement of PD-L1 expression by rPAI-1 in M2 macrophages” value in assay [3] is “completely suppressed”. Further, in assay [4], the “size of the tumor mass” value is reported as “tumor mass disappearance; also recorded: loss of tumor mass”. The “percentage of regulatory T cells in the tumor” value in assay [5] is given as “reduced”. The “percentage of intratumoral infiltration of CD8+ T cells (effector T cells)” value in assay [6] is listed as “increased”. Further, the figures for the PAI-1 activity % in assay [7] (compound 10 μm (head)) and in assay [7] (compound 25 μm (head)) were 2.1% and 2.4%, respectively.

For the origin of these results see patent US20220340665A1, “INHIBITOR AGAINST EXPRESSION OF IMMUNE CHECKPOINT MOLECULE” (RENASCIENCE INC., priority 2019, published 2022).
